Where two headings read alike, the source gives them in different places.

This assay deals with HBV rcDNA. Briefly: HepDE19 assay with bDNA quantitation of HBV rcDNA. The class given is cell-based, hepatitis B virus. A digest of the protocol:
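HepDE19 cells (HepG2-derived, Tet-regulated HBV replication) were deprived of tetracycline and then exposed to compounds for 7 days at 37 °C in 0.5% DMSO, 8-point titration from 25 μM. rcDNA was quantified by bDNA and EC50/EC90 came from 4-parameter fits. CC50 was measured by CellTiter-Glo ATP content on replicate plates after 4 days.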

Where [1] appears, read: HepDE19 assay, inhibition of formation of relaxed circular DNA (rcDNA), bDNA quantitation, read-out: DE-19bDNA EC50.
Where [2] appears, read: HepDE19 assay, inhibition of formation of rcDNA, read-out: DE-19bDNA EC50.
Setting [3] is: read-out: DE-19bDNA EC50, HepDE19 assay, inhibition of formation of rcDNA.
[4] abbreviates: Hepatitis B virus, HepDE19, HepDE19 assay, inhibition of formation of rcDNA, read-out: DE-19bDNA EC50.

In general, EC50 refers to the concentration needed to bring the measured effect to its halfway point. As to `CC(c1c[nH]c(=O)c2cc(F)c(F)cc12)N(C)C(=O)Nc1ccc(F)c(F)c1` (single isomer, unassigned) [Compound 409, 1-(1-(6,7-Difluoro-1-oxo-1,2-dihydroisoquinolin-4-yl)ethyl)-3-(3,4-difluorophenyl)-1-methylurea], the EC50 under setting [1] was found to be 0.013 µM.

`CC(c1c[nH]c(=O)c2ccccc12)N(CCCCO)C(=O)Nc1ccc(F)c(Cl)c1` (single isomer, unassigned) [Compound 149, 3-(3-Chloro-4-fluorophenyl)-1-(4-hydroxybutyl)-1-(1-(1-oxo-1,2-dihydroisoquinolin-4-yl)ethyl)urea]: under setting [2], the EC50 was 3.3 µM.

As for `CCN(C(=O)Nc1ccc(F)c(Cl)c1)C(c1ccccc1)c1c[nH]c(=O)c2ccccc12` (single isomer, unassigned) [Compound 70, 3-(3-Chloro-4-fluorophenyl)-1-ethyl-1-((1-oxo-1,2-dihydroisoquinolin-4-yl)(phenyl)methyl)urea], the EC50 under setting [3] was determined as 16 µM.

With `CCN(C(=O)Nc1ccc(F)c(Cl)c1)C(c1cnc(OC)c2ccccc12)C1CC1` (single isomer, unassigned) [Compound 40, 3-(3-Chloro-4-fluorophenyl)-1-(cyclopropyl(1-methoxyisoquinolin-4-yl)methyl)-1-ethylurea], the EC50 under setting [2] turned out to be 20 µM.

For `COc1ncc(CN(C)C(=O)Nc2ccc(F)c(Cl)c2)c2ccccc12` [Compound 2, 3-(3-Chloro-4-fluorophenyl)-1-((1-methoxyisoquinolin-4-yl)methyl)-1-methylurea], the EC50 under setting [4] amounted to 2 µM.

As to `CCN(Cc1cncc2ccccc12)C(=O)Nc1ccc(F)c(Cl)c1` [Compound 16, 3-(3-Chloro-4-fluorophenyl)-1-ethyl-1-(isoquinolin-4-ylmethyl)urea], under setting [4], the EC50 worked out at 1.7 µM.

Turning to `CC(c1cn(C)c(=O)c2c(F)cccc12)N(C)C(=O)Nc1ccc(F)c(Cl)c1` (single isomer, unassigned) [Compound 359, 3-(3-Chloro-4-fluorophenyl)-1-(1-(8-fluoro-2-methyl-1-oxo-1,2-dihydroisoquinolin-4-yl)ethyl)-1-methylurea], the EC50 under setting [1] was 0.023 µM.

With `CC(C)CN(C(=O)Nc1ccc(F)c(Cl)c1)C(C)c1c[nH]c(=O)c2c(F)c(F)ccc12` (single isomer, unassigned) [Compound 338, 3-(3-Chloro-4-fluorophenyl)-1-(1-(7,8-difluoro-1-oxo-1,2-dihydroisoquinolin-4-yl)ethyl)-1-isobutylurea], under setting [1], the EC50 stood at 0.8 µM.

With `CC(c1c[nH]c(=O)c2c(F)c(F)ccc12)N(C)C(=O)N[C@H](C)c1ccccc1` (single isomer, unassigned) [Compound 488], the EC50 (Hepatitis B virus, HepDE19, read-out: DE-19bDNA EC50 (μM), HepDE19 assay, inhibition of formation of relaxed circular DNA (rcDNA), bDNA quantitation) was determined as 9 µM.

With `CC(c1c[nH]c(=O)c2cc(F)c(F)cc12)N(C)C(=O)Nc1ccc(F)c(C#N)c1` (single isomer, unassigned) [Compound 428, 3-(3-Cyano-4-fluorophenyl)-1-(1-(6,7-difluoro-1-oxo-1,2-dihydroisoquinolin-4-yl)ethyl)-1-methylurea], the concentration giving a half-maximal response (EC50) under setting [1] was found to be 1.6 µM.

For the molecule `CCN(C(=O)Nc1ccc(F)c(Cl)c1)C(c1c[nH]c(=O)c2ccccc12)C(F)(F)F` (single isomer, unassigned) [Compound 76, 3-(3-Chloro-4-fluorophenyl)-1-ethyl-1-(2,2,2-trifluoro-1-(1-oxo-1,2-dihydroisoquinolin-4-yl)ethyl)urea], under setting [2], the EC50 was 1.4 µM.

With `CC(c1c[nH]c(=O)c2ccccc12)N(CCNCC(F)F)C(=O)Nc1ccc(F)c(Cl)c1` (single isomer, unassigned) [Compound 198, 3-(3-Chloro-4-fluorophenyl)-1-(2-((2,2-difluoroethyl)amino)ethyl)-1-(1-(1-oxo-1,2-dihydroisoquinolin-4-yl)ethyl)urea], the EC50 under setting [2] was 11.9 µM.

As for `CC(c1c[nH]c(=O)c2c(F)c(F)ccc12)N(C)C(=O)NCc1ccc(F)c(F)c1` (single isomer, unassigned) [Compound 489, 1-(1-(7,8-Difluoro-1-oxo-1,2-dihydroisoquinolin-4-yl)ethyl)-3-(3,4-difluorobenzyl)-1-methylurea], the EC50 under setting [1] was 19 µM.

On to `CC(c1cn(C)c(=O)c2cc(F)c(F)cc12)N(CCCO)C(=O)Nc1ccc(F)c(Cl)c1` (single isomer, unassigned) [Compound 351, 3-(3-Chloro-4-fluorophenyl)-1-(1-(6,7-difluoro-2-methyl-1-oxo-1,2-dihydroisoquinolin-4-yl)ethyl)-1-(3-hydroxypropyl)urea], for which the EC50 under setting [1] was 0.007 µM.

In the case of `CC(c1cnc(NCc2ncn(C)n2)c2ccccc12)N(C)C(=O)Nc1ccc(F)c(Cl)c1` (single isomer, unassigned) [Compound 245, 3-(3-Chloro-4-fluorophenyl)-1-methyl-1-(1-(1-(((1-methyl-1H-1,2,4-triazol-3-yl)methyl)amino)isoquinolin-4-yl)ethyl)urea], under setting [2], the EC50 was 13 µM.

With `CCC(c1c[nH]c(=O)c2ccccc12)N(CC)C(=O)Nc1ccc(F)c(Cl)c1` (single isomer, unassigned) [Compound 37, 3-(3-chloro-4-fluorophenyl)-1-ethyl-1-(1-(1-oxo-1,2-dihydroisoquinolin-4-yl)propyl)urea], under setting [3], the EC50 is 0.26 µM.

These data come from patent publication US20230045421A1 (priority 2018, published 2023).
